Source: US4714619A, “Aminomalonyl alanine compounds as dietary sweeteners” (priority 1986, dated 1987)
Where a name gives a salt, the structure may show the parent alone. Read-outs that look alike come from different tables or passages of the source. Where a SMILES comes first, the peptide text is derived from it.

Legend:
[1] = Comparative taste test, D- versus L-configuration (Table 2, FIG. 3); design: Sweet? (average score) / Bitter? (average score) / Salty? (average score) / Off Taste? (average score) / After Taste? (average score): scale not given here
Protocol: The compounds were dissolved in distilled water at the concentrations specified in Table 2. Solutions were made up and kept overnight in a refrigerator. The following day, they were poured into individual graduated plastic cups (10 ml per cup) and allowed to warm to room temperature. A taste panel was convened and testing begun that same day. Tasting and evaluation was done by the standard protocol developed by Dr. Robert Gesteland of Taste and Smell Consulting Group, Inc.
The first solution tasted (reference standard for the panel) was 0.25M sucrose. Other solutions were tasted in radomized fashion. The random order was arrived at as follows:
i. An ordered list of the compounds and concentrations was prepared (26 solutions in all).
ii. 0.25M sucrose was designated as 1.
iii. A standard table of random numbers was used in which the numbers were grouped as two-digit numbers. A point in the table was chosen at random (blind pointing). The first solution in the list was given the first random number in the sequence (read right-to-left, up-to-down) which is between 2 and 26. The second solution in the list was given the next random number in the sequence between 2 and 26, etc. Repeat numbers were ignored.
iv. Solutions were then labeled A (for number 1) B (for random number 2), C-Z.
v. Panelists were instructed to taste the solutions in alphabetical order.
With the assistance of Taste and Smell Consulting Group, Inc., taste panel members were trained adn tested for their ability to discriminate sucrose solutions of varying concentrations. In summary it may be stated that all 9 panel members had acceptble correlation scores. Their results were in good agreement with those which have been previously reported in siilar types of studies. For the test series the correlations for each panelist for sucrose and aspartame were acceptable as were the overall results obtained by averaging individual scores. The results of the taste panel are set forth in Table 2 wherein the parenthetical figures represent the standard error values for the number above.

[2] = Taste panel (Table 1, FIG. 2); details: for After Taste? (average score) / Bitter? (average score) / Off Taste? (average score) / Pleasant? (average score) / Salty? (average score) / Sweet? (average score): normalized to 100
[3] = Stability in aqueous solution (hplc, ambient temperature); format: physicochemical; details: 0.05m phosphate buffer, ambient temperature, read-out: degradation
Protocol: Stability was examined in aqueous solution at various pHs. Solutions (1% w/v) were prepared in 0.05M phosphate buffer adjusted to pH 7.4 and pH 3.5. Storage at ambient temperature over 36 days was monitored by hplc analysis (waters radial-pak reverse phase C-8 column, 25% CH3 CN, 0.05% TFA/H2 O eluant, 210 nm U.V. detection). Aspartame was examined similarly for comparison purposes.

C[C@@H](NC(=O)C(N)C(=O)O)C(=O)OC12CC3CC(CC(C3)C1)C2 (mixture of isomers) [(22), DL-Aminomalonyl-D-alanine 1-Adamantyl Ester Citrate]
sweet taste (words) [1]: sweet

CC(NC(=O)C(N)C(=O)O)C(=O)OC1CCCCC1C (mixture of isomers) [(23), DL-Aminomalonyl-D-alanine trans-2-Methylcyclohexyl Ester Citrate]
sweet taste (words) [1]: sweet

CC(C)OC(=O)[C@H](C)NC(=O)C(N)C(=O)O (mixture of isomers) [Compound (20), DL-Aminomalonyl-L-alanine Isopropyl Ester]
sweet taste (words) [1]: not sweet | After Taste? (average score) ([1]; 0.0431 Millimolar): 0 | Bitter? (average score) ([1]; 0.0431 Millimolar): 9 | Off Taste? (average score) ([1]; 0.0431 Millimolar): 5 | Pleasant? (average score) ([1]; 0.0431 Millimolar): 14 | Salty? (average score) ([1]; 0.0431 Millimolar): 3 | Sweet? (average score) ([1]; 0.0431 Millimolar): 3 | After Taste? (average score) ([1]; 0.4307 Millimolar): 8 | Bitter? (average score) ([1]; 0.4307 Millimolar): 14 | Off Taste? (average score) ([1]; 0.4307 Millimolar): 8 | Pleasant? (average score) ([1]; 0.4307 Millimolar): 5 | Salty? (average score) ([1]; 0.4307 Millimolar): 16 | Sweet? (average score) ([1]; 0.4307 Millimolar): 8 | After Taste? (average score) ([1]; 4.3066 Millimolar): 5 | Bitter? (average score) ([1]; 4.3066 Millimolar): 0 | Off Taste? (average score) ([1]; 4.3066 Millimolar): 5 | Pleasant? (average score) ([1]; 4.3066 Millimolar): 19 | Salty? (average score) ([1]; 4.3066 Millimolar): 0 | Sweet? (average score) ([1]; 4.3066 Millimolar): 5 | sweet taste (words) ([1]; listed as 20): non-sweet

C[C@@H](NC(=O)C(N)C(=O)O)C(=O)OC1C2(C)CCC(C2)C1(C)C (mixture of isomers) [Compound (21), DL-Aminomalonyl-D-alanine Fenchyl Ester]
sweet taste (words) [1]: sweet | After Taste? (average score) ([1]; 0.0306 Millimolar): 12 | Bitter? (average score) ([1]; 0.0306 Millimolar): 3 | Off Taste? (average score) ([1]; 0.0306 Millimolar): 13 | Pleasant? (average score) ([1]; 0.0306 Millimolar): -9 | Salty? (average score) ([1]; 0.0306 Millimolar): 4 | Sweet? (average score) ([1]; 0.0306 Millimolar): 1 | After Taste? (average score) ([1]; 0.3064 Millimolar): 50 | Bitter? (average score) ([1]; 0.3064 Millimolar): 29 | Off Taste? (average score) ([1]; 0.3064 Millimolar): 56 | Pleasant? (average score) ([1]; 0.3064 Millimolar): -57 | Salty? (average score) ([1]; 0.3064 Millimolar): 9 | Sweet? (average score) ([1]; 0.3064 Millimolar): 8 | After Taste? (average score) ([1]; 3.0637 Millimolar): 79 | Bitter? (average score) ([1]; 3.0637 Millimolar): 90 | Off Taste? (average score) ([1]; 3.0637 Millimolar): 99 | Pleasant? (average score) ([1]; 3.0637 Millimolar): -83 | Salty? (average score) ([1]; 3.0637 Millimolar): 62 | Sweet? (average score) ([1]; 3.0637 Millimolar): 13

COC(=O)[C@H](Cc1ccccc1)NC(=O)[C@@H](N)CC(=O)O [Aspartame, methyl ester of L-α-Aspartyl-L-phenylalanine] (HELM PEPTIDE1{D.F.[CO[*:1]]}$$$$V2.0)
After Taste? (average score) ([2]; 0.3392 Millimolar): 1 | Bitter? (average score) ([2]; 0.3392 Millimolar): 0 | Off Taste? (average score) ([2]; 0.3392 Millimolar): 1 | Pleasant? (average score) ([2]; 0.3392 Millimolar): 4 | Salty? (average score) ([2]; 0.3392 Millimolar): 1 | Sweet? (average score) ([2]; 0.3392 Millimolar): 15 | After Taste? (average score) ([2]; 1.0194 Millimolar): 2 | Bitter? (average score) ([2]; 1.0194 Millimolar): 0 | Off Taste? (average score) ([2]; 1.0194 Millimolar): 4 | Pleasant? (average score) ([2]; 1.0194 Millimolar): 15 | Salty? (average score) ([2]; 1.0194 Millimolar): 3 | Sweet? (average score) ([2]; 1.0194 Millimolar): 27 | After Taste? (average score) ([2]; 3.3979 Millimolar): 26 | Bitter? (average score) ([2]; 3.3979 Millimolar): 4 | Off Taste? (average score) ([2]; 3.3979 Millimolar): 2 | Pleasant? (average score) ([2]; 3.3979 Millimolar): 26 | Salty? (average score) ([2]; 3.3979 Millimolar): 2 | Sweet? (average score) ([2]; 3.3979 Millimolar): 68 | After Taste? (average score) ([2]; 10.1937 Millimolar): 34 | Bitter? (average score) ([2]; 10.1937 Millimolar): 0 | Off Taste? (average score) ([2]; 10.1937 Millimolar): 4 | Pleasant? (average score) ([2]; 10.1937 Millimolar): 9 | Salty? (average score) ([2]; 10.1937 Millimolar): 1 | Sweet? (average score) ([2]; 10.1937 Millimolar): 83 | sweetness potency (reciprocal of concentration required for a score of 50) ([2]; sucrose=1.0, weight scale): 126 | taste quality ([2]; taste panel): sweet and pleasant | degraded at 864 h ([3]; pH 3.5, 36 days): > 50% | degraded at 216 h ([3]; pH 7.4 buffer, 9 days): 100% | After Taste? (average score) ([1]; 0.3398 Millimolar): 1 | Bitter? (average score) ([1]; 0.3398 Millimolar): 1 | Off Taste? (average score) ([1]; 0.3398 Millimolar): 1 | Pleasant? (average score) ([1]; 0.3398 Millimolar): 16 | Salty? (average score) ([1]; 0.3398 Millimolar): 0 | Sweet? (average score) ([1]; 0.3398 Millimolar): 9 | After Taste? (average score) ([1]; 1.0194 Millimolar): 7 | Bitter? (average score) ([1]; 1.0194 Millimolar): 3 | Off Taste? (average score) ([1]; 1.0194 Millimolar): 6 | Pleasant? (average score) ([1]; 1.0194 Millimolar): 8 | Salty? (average score) ([1]; 1.0194 Millimolar): 10 | Sweet? (average score) ([1]; 1.0194 Millimolar): 27 | After Taste? (average score) ([1]; 3.3979 Millimolar): 16 | Bitter? (average score) ([1]; 3.3979 Millimolar): 2 | Off Taste? (average score) ([1]; 3.3979 Millimolar): 12 | Pleasant? (average score) ([1]; 3.3979 Millimolar): 22 | Salty? (average score) ([1]; 3.3979 Millimolar): 3 | Sweet? (average score) ([1]; 3.3979 Millimolar): 66 | After Taste? (average score) ([1]; 10.1937 Millimolar): 22 | Bitter? (average score) ([1]; 10.1937 Millimolar): 5 | Off Taste? (average score) ([1]; 10.1937 Millimolar): 17 | Pleasant? (average score) ([1]; 10.1937 Millimolar): 12 | Salty? (average score) ([1]; 10.1937 Millimolar): 0 | Sweet? (average score) ([1]; 10.1937 Millimolar): 64

OC[C@H]1O[C@@](CO)(O[C@H]2O[C@H](CO)[C@@H](O)[C@H](O)[C@H]2O)[C@@H](O)[C@@H]1O [Sucrose]
After Taste? (average score) ([2]; 62.0000 Millimolar): 0 | Bitter? (average score) ([2]; 62.0000 Millimolar): 3 | Off Taste? (average score) ([2]; 62.0000 Millimolar): 4 | Pleasant? (average score) ([2]; 62.0000 Millimolar): -4 | Salty? (average score) ([2]; 62.0000 Millimolar): 0 | Sweet? (average score) ([2]; 62.0000 Millimolar): 13 | After Taste? (average score) ([2]; 125.0000 Millimolar): 5 | Bitter? (average score) ([2]; 125.0000 Millimolar): 2 | Off Taste? (average score) ([2]; 125.0000 Millimolar): 4 | Pleasant? (average score) ([2]; 125.0000 Millimolar): 18 | Salty? (average score) ([2]; 125.0000 Millimolar): 8 | Sweet? (average score) ([2]; 125.0000 Millimolar): 30 | After Taste? (average score) ([2]; 250.0000 Millimolar): 0 | Bitter? (average score) ([2]; 250.0000 Millimolar): 0 | Off Taste? (average score) ([2]; 250.0000 Millimolar): 0 | Pleasant? (average score) ([2]; 250.0000 Millimolar): 49 | Sweet? (average score) ([2]; 250.0000 Millimolar): 64 | After Taste? (average score) ([2]; 500.0000 Millimolar): 7 | Bitter? (average score) ([2]; 500.0000 Millimolar): 6 | Off Taste? (average score) ([2]; 500.0000 Millimolar): 5 | Pleasant? (average score) ([2]; 500.0000 Millimolar): 32 | Salty? (average score) ([2]; 500.0000 Millimolar): 12 | Sweet? (average score) ([2]; 500.0000 Millimolar): 75 | After Taste? (average score) ([2]; 1000.0000 Millimolar): 30 | Bitter? (average score) ([2]; 1000.0000 Millimolar): 0 | Off Taste? (average score) ([2]; 1000.0000 Millimolar): 0 | Pleasant? (average score) ([2]; 1000.0000 Millimolar): 26 | Salty? (average score) ([2]; 1000.0000 Millimolar): 1 | Sweet? (average score) ([2]; 1000.0000 Millimolar): 97 | After Taste? (average score) ([1]; 62.0000 Millimolar): 10 | Bitter? (average score) ([1]; 62.0000 Millimolar): 6 | Off Taste? (average score) ([1]; 62.0000 Millimolar): 9 | Pleasant? (average score) ([1]; 62.0000 Millimolar): 17 | Salty? (average score) ([1]; 62.0000 Millimolar): 9 | Sweet? (average score) ([1]; 62.0000 Millimolar): 3 | After Taste? (average score) ([1]; 125.0000 Millimolar): 4 | Bitter? (average score) ([1]; 125.0000 Millimolar): 2 | Off Taste? (average score) ([1]; 125.0000 Millimolar): 3 | Pleasant? (average score) ([1]; 125.0000 Millimolar): 21 | Salty? (average score) ([1]; 125.0000 Millimolar): 1 | Sweet? (average score) ([1]; 125.0000 Millimolar): 30 | After Taste? (average score) ([1]; 250.0000 Millimolar): 15 | Bitter? (average score) ([1]; 250.0000 Millimolar): 3 | Off Taste? (average score) ([1]; 250.0000 Millimolar): 12 | Pleasant? (average score) ([1]; 250.0000 Millimolar): 34 | Salty? (average score) ([1]; 250.0000 Millimolar): 7 | Sweet? (average score) ([1]; 250.0000 Millimolar): 52 | After Taste? (average score) ([1]; 500.0000 Millimolar): 9 | Bitter? (average score) ([1]; 500.0000 Millimolar): 0 | Off Taste? (average score) ([1]; 500.0000 Millimolar): 10 | Pleasant? (average score) ([1]; 500.0000 Millimolar): 35 | Salty? (average score) ([1]; 500.0000 Millimolar): 0 | Sweet? (average score) ([1]; 500.0000 Millimolar): 78 | After Taste? (average score) ([1]; 1000.0000 Millimolar): 8 | Bitter? (average score) ([1]; 1000.0000 Millimolar): 0 | Off Taste? (average score) ([1]; 1000.0000 Millimolar): 12 | Pleasant? (average score) ([1]; 1000.0000 Millimolar): 28 | Salty? (average score) ([1]; 1000.0000 Millimolar): 0 | Sweet? (average score) ([1]; 1000.0000 Millimolar): 95
